According to patent US20260262643A1, “HERBICIDAL BENZOXAZINES” (FMC CORPORATION, priority 2022, published 2026):

Assays:
[1] = tested on: barnyardgrass; experiment: Test C preemergence; assay type: in vivo, Echinochloa crusgalli; conditions: 0 to 100 scale (0 no effect, 100 complete control)
How it was run: (§1)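 Soil-applied (pre) and foliar (post, 1–2 leaf, 2–10 cm) sprays; surfactant-containing non-phytotoxic solvent vehicle; loam/sand substrate. Readout: visual % control at 10 d, greenhouse, versus untreated.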

[2] = tested on: blackgrass; experiment: Test C preemergence; assay type: in vivo, Alopecurus myosuroides; conditions: 0 to 100 scale (0 no effect, 100 complete control)
How it was run: as §1

[3] = tested on: corn; experiment: Test C preemergence; assay type: in vivo, Zea mays; conditions: 0 to 100 scale (0 no effect, 100 complete control)
How it was run: as §1

[4] = tested on: green foxtail; experiment: Test C preemergence; assay type: in vivo, Setaria viridis; conditions: 0 to 100 scale (0 no effect, 100 complete control)
How it was run: as §1

[5] = tested on: kochia; experiment: Test C preemergence; assay type: in vivo, Bassia scoparia; conditions: 0 to 100 scale (0 no effect, 100 complete control)
How it was run: as §1

[6] = tested on: oat, wild; experiment: Test C preemergence; assay type: in vivo, Avena fatua; conditions: 0 to 100 scale (0 no effect, 100 complete control)
How it was run: as §1

[7] = tested on: pigweed, palmer; experiment: Test C preemergence; assay type: in vivo, Amaranthus palmeri; conditions: 0 to 100 scale (0 no effect, 100 complete control)
How it was run: as §1

[8] = tested on: ragweed; experiment: Test C preemergence; assay type: in vivo, Ambrosia artemisiifolia; conditions: 0 to 100 scale (0 no effect, 100 complete control)
How it was run: as §1

[9] = tested on: ryegrass, Italian; experiment: Test C preemergence; assay type: in vivo, Lolium multiflorum; conditions: 0 to 100 scale (0 no effect, 100 complete control)
How it was run: as §1

[10] = tested on: soybean; experiment: Test C preemergence; assay type: in vivo, Glycine max; conditions: 0 to 100 scale (0 no effect, 100 complete control)
How it was run: as §1

[11] = tested on: wheat; experiment: Test C preemergence; assay type: in vivo, Triticum aestivum; conditions: 0 to 100 scale (0 no effect, 100 complete control)
How it was run: as §1

[12] = tested on: barnyardgrass; experiment: Test C postemergence; assay type: in vivo, Echinochloa crusgalli; conditions: 10 days
How it was run: as §1

[13] = tested on: blackgrass; experiment: Test C postemergence; assay type: in vivo, Alopecurus myosuroides; conditions: 10 days
How it was run: as §1

[14] = tested on: corn; experiment: Test C postemergence; assay type: in vivo, Zea mays; conditions: 10 days
How it was run: as §1

[15] = tested on: green foxtail; experiment: Test C postemergence; assay type: in vivo, Setaria viridis; conditions: 10 days
How it was run: as §1

[16] = tested on: kochia; experiment: Test C postemergence; assay type: in vivo, Bassia scoparia; conditions: 10 days
How it was run: as §1

[17] = tested on: oat, wild; experiment: Test C postemergence; assay type: in vivo, Avena fatua; conditions: 10 days
How it was run: as §1

[18] = tested on: pigweed, palmer; experiment: Test C postemergence; assay type: in vivo, Amaranthus palmeri; conditions: 10 days
How it was run: as §1

[19] = tested on: ragweed; experiment: Test C postemergence; assay type: in vivo, Ambrosia artemisiifolia; conditions: 10 days
How it was run: as §1

[20] = tested on: ryegrass, Italian; experiment: Test C postemergence; assay type: in vivo, Lolium multiflorum; conditions: 10 days
How it was run: as §1

[21] = tested on: soybean; experiment: Test C postemergence; assay type: in vivo, Glycine max; conditions: 10 days
How it was run: as §1

[22] = tested on: wheat; experiment: Test C postemergence; assay type: in vivo, Triticum aestivum; conditions: 10 days
How it was run: as §1

[23] = tested on: galium; experiment: Test C postemergence; assay type: in vivo, Galium aparine; conditions: 10 days
How it was run: as §1

[24] = tested on: horseweed; experiment: Test C postemergence; assay type: in vivo, Erigeron canadensis; conditions: 10 days
How it was run: as §1

[25] = tested on: barnyardgrass; experiment: Test D flooded paddy test; assay type: in vivo, Echinochloa crus-galli; conditions: 250 g ai/ha, applied to paddy water, visual rating after 13 to 14 days, scale 0 to 100 (0 no effect, 100 complete control)
How it was run: (§2)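 Visual ratings from 0, meaning no effect, to 100, meaning complete control, were assigned against untreated controls 13 to 14 days after compounds were added to the floodwater of pots kept 3 cm deep, with plants at the 2-leaf stage.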

[26] = tested on: ducksalad; experiment: Test D flooded paddy test; assay type: in vivo, Heteranthera limosa; conditions: 250 g ai/ha, applied to paddy water, visual rating after 13 to 14 days, scale 0 to 100 (0 no effect, 100 complete control)
How it was run: as §2

[27] = tested on: rice; experiment: Test D flooded paddy test; assay type: in vivo, Oryza sativa; conditions: 250 g ai/ha, applied to paddy water, visual rating after 13 to 14 days, scale 0 to 100 (0 no effect, 100 complete control)
How it was run: as §2

[28] = tested on: sedge, umbrella; experiment: Test D flooded paddy test; assay type: in vivo, Cyperus difformis; conditions: 250 g ai/ha, applied to paddy water, visual rating after 13 to 14 days, scale 0 to 100 (0 no effect, 100 complete control)
How it was run: as §2

[29] = Preemergence, 500 g ai/ha, visual rating after 10 days
[30] = Test C, preemergence, 125 g ai/ha
[31] = 125 g ai/ha, postemergence, 0 to 100 scale, 0 no effect, 100 complete control
[32] = Postemergence, 500 g ai/ha, visual 0 to 100 scale (0 no effect, 100 complete control)

Cc1cccc2c1O[C@@H](C)CN2C(=O)c1cc(-n2cnc(C(C)C)n2)cc2occc12 [Compound 195]
Plant response rating, Barnyardgrass [1, 29]: 100
Barnyardgrass plant response rating [1, 30]: 90
Plant response rating, Blackgrass [2, 29]: 40
Blackgrass plant response rating [2, 30]: 30
Plant response rating, Corn [3, 29]: 0
Corn plant response rating [3, 30]: 0
Plant response rating, Foxtail, Green [4, 29]: 100
Foxtail, Green plant response rating [4, 30]: 100
Plant response rating, Kochia [5, 29]: 100
Kochia plant response rating [5, 30]: 70
Plant response rating, Oat, Wild [6, 29]: 80
Oat, Wild plant response rating [6, 30]: 20
Plant response rating, Pigweed, Palmer [7, 29]: 100
Pigweed, Palmer plant response rating [7, 30]: 100
Plant response rating, Ragweed [8, 29]: 100
Ragweed plant response rating [8, 30]: 60
Plant response rating, Ryegrass, Italian [9, 29]: 100
Ryegrass, Italian plant response rating [9, 30]: 80
Plant response rating, Soybean [10, 29]: 100
Soybean plant response rating [10, 30]: 70
Plant response rating, Wheat [11, 29]: 80
Wheat plant response rating [11, 30]: 0
Plant response rating, Barnyardgrass [12, 31]: 30
Plant response rating, Barnyardgrass [12, 32]: 60
Plant response rating, Blackgrass [13, 31]: 50
Plant response rating, Blackgrass [13, 32]: 90
Plant response rating, Corn [14, 31]: 50
Plant response rating, Corn [14, 32]: 80
Plant response rating, Foxtail, Green [15, 31]: 50
Plant response rating, Foxtail, Green [15, 32]: 90
Plant response rating, Kochia [16, 31]: 90
Plant response rating, Kochia [16, 32]: 100
Plant response rating, Oat, Wild [17, 31]: 10
Plant response rating, Oat, Wild [17, 32]: 90
Plant response rating, Pigweed, Palmer [18, 31]: 90
Plant response rating, Pigweed, Palmer [18, 32]: 100
Plant response rating, Ragweed [19, 31]: 70
Plant response rating, Ragweed [19, 32]: 70
Plant response rating, Ryegrass, Italian [20, 31]: 40
Plant response rating, Ryegrass, Italian [20, 32]: 80
Plant response rating, Soybean [21, 31]: 100
Plant response rating, Soybean [21, 32]: 100
Plant response rating, Wheat [22, 31]: 20
Plant response rating, Wheat [22, 32]: 50
Plant response rating, Galium [23, 31]: 90
Plant response rating, Galium [23, 32]: 100
Plant response rating, Horseweed [24, 31]: 90
Plant response rating, Horseweed [24, 32]: 70
Plant response rating, Barnyardgrass (Flood) [25]: 45
Plant response rating, Ducksalad (Flood) [26]: 70
Plant response rating, Rice (Flood) [27]: 0
Plant response rating, Sedge, Umbrella (Flood) [28]: 98
